Results reported in ChEMBL document CHEMBL3091332, “Recycling antimalarial leads for cancer: Antiproliferative properties of N-cinnamoyl chloroquine analogues” (Bioorg Med Chem Lett, 2013).
One block for each compound: values may come before it.

Legend:
Caco-2 = assay: Antiproliferative activity against human Caco2 cells after 2 days by sulforhodamine B assay; format: functional; details: Caco-2, 48 h
[1] = Antiproliferative activity against human HFF1 cells after 2 days by sulforhodamine B assay; format: cell-based, HFF-1
[2] = Antiproliferative activity against human MKN28 cells after 2 days by sulforhodamine B assay; format: functional; details: MKN-28, 48 h
MCF7 = assay: Antiproliferative activity against human MCF7 cells after 2 days by sulforhodamine B assay; format: functional; details: MCF7, 48 h
[3] = target: Receptor tyrosine-protein kinase erbB-2 (Homo sapiens, UniProt P04626); assay: Inhibition of human HER2
Chain of Receptor tyrosine-protein kinase erbB-2 (P04626 whole entry): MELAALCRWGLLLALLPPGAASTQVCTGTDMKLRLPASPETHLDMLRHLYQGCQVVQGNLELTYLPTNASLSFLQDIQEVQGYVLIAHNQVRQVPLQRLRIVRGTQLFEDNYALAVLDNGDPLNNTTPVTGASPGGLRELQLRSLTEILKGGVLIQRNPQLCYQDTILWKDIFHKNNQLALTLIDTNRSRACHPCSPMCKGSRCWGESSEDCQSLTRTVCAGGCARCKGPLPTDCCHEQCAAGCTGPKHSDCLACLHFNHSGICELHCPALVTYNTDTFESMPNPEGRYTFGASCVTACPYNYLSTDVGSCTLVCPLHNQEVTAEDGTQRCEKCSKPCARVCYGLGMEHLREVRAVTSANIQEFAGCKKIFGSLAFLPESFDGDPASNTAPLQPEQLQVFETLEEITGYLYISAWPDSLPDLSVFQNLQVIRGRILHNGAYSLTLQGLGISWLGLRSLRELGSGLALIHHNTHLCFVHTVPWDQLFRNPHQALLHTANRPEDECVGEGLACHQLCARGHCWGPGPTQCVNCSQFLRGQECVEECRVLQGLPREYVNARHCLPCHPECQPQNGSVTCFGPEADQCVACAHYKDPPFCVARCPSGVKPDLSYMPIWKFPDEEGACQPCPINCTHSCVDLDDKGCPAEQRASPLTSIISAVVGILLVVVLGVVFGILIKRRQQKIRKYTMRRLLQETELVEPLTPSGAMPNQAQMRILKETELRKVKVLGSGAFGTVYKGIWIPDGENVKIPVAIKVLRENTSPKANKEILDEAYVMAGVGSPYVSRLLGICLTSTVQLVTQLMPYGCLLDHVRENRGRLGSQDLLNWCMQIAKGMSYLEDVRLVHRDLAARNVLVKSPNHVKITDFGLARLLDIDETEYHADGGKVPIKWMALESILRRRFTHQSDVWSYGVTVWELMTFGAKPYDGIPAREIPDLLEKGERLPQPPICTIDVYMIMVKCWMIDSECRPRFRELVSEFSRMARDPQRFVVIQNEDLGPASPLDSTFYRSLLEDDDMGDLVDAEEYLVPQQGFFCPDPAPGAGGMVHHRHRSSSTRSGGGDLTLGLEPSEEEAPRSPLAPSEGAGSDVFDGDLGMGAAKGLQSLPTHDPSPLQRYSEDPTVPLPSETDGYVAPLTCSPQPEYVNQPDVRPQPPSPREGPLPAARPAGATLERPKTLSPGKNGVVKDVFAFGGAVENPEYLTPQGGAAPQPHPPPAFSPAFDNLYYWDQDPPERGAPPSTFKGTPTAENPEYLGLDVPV

SMILES: CCN(CC)CCCC(C)Nc1ccnc2cc(Cl)ccc12 (stereo unspecified) [CHLOROQUINE]
GI50 (Caco-2): 38.7 µM | GI50 at 48 h [1]: > 100 µM | GI50 [2]: 44.4 µM | GI50 (MCF7): 64.3 µM

SMILES: COc1cccc2c1C(=O)c1c(O)c3c(c(O)c1C2=O)C[C@@](O)(C(=O)CO)C[C@@H]3O[C@H]1C[C@H](N)[C@H](O)[C@H](C)O1 [DOXORUBICIN]
GI50 (Caco-2): 0.32 µM | GI50 at 48 h [1]: > 400 µM | GI50 [2]: 0.24 µM | GI50 (MCF7): 0.31 µM

SMILES: O=C(/C=C/c1ccccc1[N+](=O)[O-])NCCCCNc1ccnc2cc(Cl)ccc12
GI50 (Caco-2): 11.9 µM | GI50 at 48 h [1]: > 100 µM | GI50 [2]: 15.1 µM | GI50 (MCF7): 13.3 µM

SMILES: COc1ccc(/C=C/C(=O)OCCCCNc2ccnc3cc(Cl)ccc23)cc1
GI50 (Caco-2): 17.3 µM | GI50 at 48 h [1]: 75.2 µM | GI50 [2]: 6.6 µM | GI50 (MCF7): 5.08 µM

SMILES: O=C(/C=C/c1cccc(F)c1)NCCCCNc1ccnc2cc(Cl)ccc12
GI50 (Caco-2): 25.4 µM | GI50 at 48 h [1]: > 100 µM | GI50 [2]: 15.3 µM | GI50 (MCF7): 14.8 µM

SMILES: O=C(/C=C/c1ccccc1)NCCCCNc1ccnc2cc(Cl)ccc12
GI50 (Caco-2): 24.1 µM | GI50 at 48 h [1]: > 100 µM | GI50 [2]: 16.2 µM | GI50 (MCF7): 14.8 µM

More lines, main results first:

GI50 (Caco-2): 11.9 µM | GI50 (MCF7): 8.09 µM
SMILES: CC(C)c1ccc(/C=C/C(=O)NCCCCNc2ccnc3cc(Cl)ccc23)cc1
GI50 at 48 h [1]: > 100 µM | GI50 [2]: 22.3 µM

GI50 (Caco-2): 44.1 µM | GI50 (MCF7): 5.24 µM
SMILES: O=C(/C=C/c1ccc(F)cc1)NCCCNc1ccnc2cc(Cl)ccc12
GI50 at 48 h [1]: 44.8 µM | GI50 [2]: 34.7 µM

GI50 (Caco-2): 9.16 µM | GI50 (MCF7): 20.1 µM
SMILES: CC(C)c1ccc(/C=C/C(=O)NCCCCCNc2ccnc3cc(Cl)ccc23)cc1
GI50 at 48 h [1]: > 100 µM | GI50 [2]: 14 µM

GI50 (Caco-2): > 100 µM | GI50 (MCF7): 77.1 µM
SMILES: COc1ccc(/C=C/C(=O)NCCCCNc2ccncc2)cc1
GI50 at 48 h [1]: > 100 µM | GI50 [2]: 84.5 µM

GI50 (Caco-2): 19.3 µM | GI50 (MCF7): 59.3 µM
SMILES: O=C(/C=C/c1cccc([N+](=O)[O-])c1)NCCCCNc1ccnc2cc(Cl)ccc12
GI50 at 48 h [1]: > 100 µM | GI50 [2]: 16.2 µM

IC50 [3]: 0.059 µM
SMILES: CCOc1cc2ncc(C#N)c(Nc3ccc(OCc4ccccn4)cc3)c2cc1NC(=O)/C=C/CN(C)C

GI50 (Caco-2): 30.7 µM | GI50 (MCF7): 25.2 µM
SMILES: COc1ccc(/C=C/C(=O)NCCCCNc2ccnc3cc(Cl)ccc23)cc1
GI50 at 48 h [1]: > 100 µM | GI50 [2]: 16.9 µM

GI50 (Caco-2): 6.75 µM | GI50 (MCF7): 5.24 µM
SMILES: CC(C)c1ccc(/C=C/C(=O)NCCCCNc2ccnc3ccccc23)cc1
GI50 at 48 h [1]: 39.1 µM | GI50 [2]: 5.55 µM

GI50 (Caco-2): 15 µM | GI50 (MCF7): 12.5 µM
SMILES: O=C(/C=C/c1ccc(F)cc1)NCCCCNc1ccnc2cc(Cl)ccc12
GI50 at 48 h [1]: > 100 µM | GI50 [2]: 11.8 µM

GI50 (Caco-2): 29.6 µM | GI50 (MCF7): 32.7 µM
SMILES: CC(C)c1ccc(/C=C/C(=O)NCCCCN2CCOCC2)cc1
GI50 at 48 h [1]: > 100 µM | GI50 [2]: 72.5 µM
